# ChEMBL document CHEMBL3885881, “DrugMatrix”
# Species on record: Rattus norvegicus
# Test: DrugMatrix - Regimen: Daily Repeat
# Type: toxicity, organism-based, Sprague-Dawley
# Parameters: regimen Daily Repeat, gender Male, age 6-8 weeks
# Conditions: in vivo, po, route oral GAVAGE, vehicle .5 % CMC; for ABSOLUTE BASOPHIL / ABSOLUTE EOSINOPHIL / ABSOLUTE LYMPHOCYTE / ABSOLUTE MONOCYTE / BASOPHIL / ERYTHROCYTE COUNT / HEMATOCRIT / HEMOGLOBIN / LYMPHOCYTE / MEAN CORPUSCULAR HEMOGLOBIN / MEAN CORPUSCULAR HEMOGLOBIN CONCENTRATION / MEAN CORPUSCULAR VOLUME / NEUTROPHIL / NUCLEATED RED BLOOD CELLS / PLATELET COUNT / ABSOLUTE SEGMENTED NEUTROPHIL: tissue Blood; for ALANINE AMINOTRANSFERASE / ALKALINE PHOSPHATASE / ASPARTATE AMINOTRANSFERASE / BLOOD UREA NITROGEN / CARBON DIOXIDE / CHOLESTEROL / CREATINE PHOSPHOKINASE / CREATININE / GLUCOSE / LACTATE DEHYDROGENASE / LIPASE / PHOSPHORUS / POTASSIUM / SODIUM / TOTAL BILIRUBIN / TOTAL PROTEIN: tissue Plasma
# [1] = 0 mg/kg, 72 h, dose level Control, time 3 day
# [2] = 0 mg/kg, 120 h, dose level Control, time 5 day
# [3] = 0.06 mg/kg, 72 h, dose level Low, time 3 day
smiles,measurement,setting,value
CC(=O)CC(c1ccccc1)c1c(O)c2ccccc2oc1=O (stereo not given) [WARFARIN],ABSOLUTE BASOPHIL,[1],0 CELLS/uL
same,ABSOLUTE EOSINOPHIL,[1],284.5 CELLS/uL
same,ABSOLUTE LYMPHOCYTE,[1],11670.5 CELLS/uL
same,ABSOLUTE MONOCYTE,[1],420.83 CELLS/uL
same,BASOPHIL,[1],0%
same,ERYTHROCYTE COUNT,[1],5.38 x10E6/uL
same,HEMATOCRIT,[1],34.05%
same,HEMOGLOBIN,[1],12.75 G/DL
same,LYMPHOCYTE,[1],88.33%
same,MEAN CORPUSCULAR HEMOGLOBIN,[1],23.73 pg
same,MEAN CORPUSCULAR HEMOGLOBIN CONCENTRATION,[1],37.43 G/DL
same,MEAN CORPUSCULAR VOLUME,[1],63.4 fL
same,NEUTROPHIL,[1],7.17%
same,NUCLEATED RED BLOOD CELLS,[1],0 /100WBC
same,PLATELET COUNT,[1],1184.67 x10E3/uL
same,ALANINE AMINOTRANSFERASE,[1],45.33 u/L
same,ALKALINE PHOSPHATASE,[1],388.83 u/L
same,ASPARTATE AMINOTRANSFERASE,[1],84.83 u/L
same,BLOOD UREA NITROGEN,[1],15.5 mg/dL
same,CARBON DIOXIDE,[1],27 mmol/L
same,CHOLESTEROL,[1],76.67 mg/dL
same,CREATINE PHOSPHOKINASE,[1],301 u/L
same,CREATININE,[1],0.21 mg/dL
same,GLUCOSE,[1],168.83 mg/dL
same,LACTATE DEHYDROGENASE,[1],294.83 u/L
same,LIPASE,[1],9.8 u/L
same,PHOSPHORUS,[1],13.25 mg/dL
same,POTASSIUM,[1],6.41 MEQ/L
same,SODIUM,[1],143.72 MEQ/L
same,TOTAL BILIRUBIN,[1],0.22 mg/dL
same,TOTAL PROTEIN,[1],5.98 G/DL
same,ABSOLUTE BASOPHIL,[2],0 CELLS/uL
same,ABSOLUTE EOSINOPHIL,[2],190.67 CELLS/uL
same,ABSOLUTE LYMPHOCYTE,[2],12549.5 CELLS/uL
same,ABSOLUTE MONOCYTE,[2],276 CELLS/uL
same,ABSOLUTE SEGMENTED NEUTROPHIL,[2],1067.17 CELLS/uL
same,BASOPHIL,[2],0%
same,ERYTHROCYTE COUNT,[2],5.66 x10E6/uL
same,HEMATOCRIT,[2],35.92%
same,HEMOGLOBIN,[2],13.65 G/DL
same,LYMPHOCYTE,[2],89%
same,MEAN CORPUSCULAR HEMOGLOBIN,[2],24.12 pg
same,MEAN CORPUSCULAR HEMOGLOBIN CONCENTRATION,[2],38.03 G/DL
same,MEAN CORPUSCULAR VOLUME,[2],63.47 fL
same,NEUTROPHIL,[2],7.67%
same,NUCLEATED RED BLOOD CELLS,[2],0.17 /100WBC
same,PLATELET COUNT,[2],1251.67 x10E3/uL
same,ALANINE AMINOTRANSFERASE,[2],43.33 u/L
same,ALKALINE PHOSPHATASE,[2],365.67 u/L
same,ASPARTATE AMINOTRANSFERASE,[2],83.67 u/L
same,BLOOD UREA NITROGEN,[2],18.17 mg/dL
same,CARBON DIOXIDE,[2],28.67 mmol/L
same,CHOLESTEROL,[2],71.5 mg/dL
same,CREATINE PHOSPHOKINASE,[2],284.5 u/L
same,CREATININE,[2],0.21 mg/dL
same,GLUCOSE,[2],161.67 mg/dL
same,LACTATE DEHYDROGENASE,[2],259.67 u/L
same,LIPASE,[2],9.5 u/L
same,PHOSPHORUS,[2],12.45 mg/dL
same,POTASSIUM,[2],6.49 MEQ/L
same,SODIUM,[2],144.25 MEQ/L
same,TOTAL BILIRUBIN,[2],0.2 mg/dL
same,TOTAL PROTEIN,[2],6.1 G/DL
same,ABSOLUTE BASOPHIL,[3],0 CELLS/uL
same,ABSOLUTE EOSINOPHIL,[3],18.67 CELLS/uL
same,ABSOLUTE LYMPHOCYTE,[3],6429.67 CELLS/uL
same,ABSOLUTE MONOCYTE,[3],120.33 CELLS/uL
same,ABSOLUTE SEGMENTED NEUTROPHIL,[3],364.67 CELLS/uL
same,BASOPHIL,[3],0%
same,ERYTHROCYTE COUNT,[3],5.26 x10E6/uL
same,HEMATOCRIT,[3],33.97%
same,HEMOGLOBIN,[3],12.8 G/DL
same,LYMPHOCYTE,[3],92.67%
same,MEAN CORPUSCULAR HEMOGLOBIN,[3],24.33 pg
same,MEAN CORPUSCULAR HEMOGLOBIN CONCENTRATION,[3],37.67 G/DL
same,MEAN CORPUSCULAR VOLUME,[3],64.6 fL
same,NEUTROPHIL,[3],5.33%
same,NUCLEATED RED BLOOD CELLS,[3],0 /100WBC
same,PLATELET COUNT,[3],1234.33 x10E3/uL
same,ALANINE AMINOTRANSFERASE,[3],50 u/L
same,ALKALINE PHOSPHATASE,[3],307.67 u/L
same,ASPARTATE AMINOTRANSFERASE,[3],80.67 u/L
same,BLOOD UREA NITROGEN,[3],15.33 mg/dL
same,CARBON DIOXIDE,[3],28.67 mmol/L
same,CHOLESTEROL,[3],72.67 mg/dL
same,CREATINE PHOSPHOKINASE,[3],222.67 u/L
same,CREATININE,[3],0.21 mg/dL
same,GLUCOSE,[3],142.33 mg/dL
same,LACTATE DEHYDROGENASE,[3],174.67 u/L
same,LIPASE,[3],9.5 u/L
same,PHOSPHORUS,[3],12.87 mg/dL
same,POTASSIUM,[3],6.97 MEQ/L
same,SODIUM,[3],146.9 MEQ/L
same,TOTAL BILIRUBIN,[3],0.23 mg/dL
same,TOTAL PROTEIN,[3],6.03 G/DL
